Measurements taken from patent US8097708B2, “10a-Azalide compound” (Taisho Pharmaceutical Co., Ltd., priority 2006, dated 2012).
Values after ≈ are worked out from the molar mass of the structure shown.

Assays:
Assay in all cases: In vitro antibacterial activity, microbroth dilution method (NCCLS method)
Assay type in all cases: cell-based
S. pneumoniae ATCC 49619 = conditions: Streptococcus pneumoniae, ATCC49619; bacteria symbol B = S. pneumoniae ATCC 49619; read-out: MIC values (minimum inhibitory concentration)
Procedure: (§1) In vitro antibacterial activities of the compounds of the present invention against various test bacteria were measured according to the microbroth dilution method (NCCLS method). As test compounds, the compounds of Examples 7, 23, 114, 126, 131, 210, 214, 231, 257, 261, 287, 363, 366, 563 and Comparative agent 1: clarithromycin were used. The results are shown as MIC values (minimum inhibitory concentration, μg/ml) in Table 21.

H. influenzae ATCC 43095 = conditions: Haemophilus influenzae, ATCC43095; bacteria symbol A = H. influenzae ATCC 43095; read-out: MIC values (minimum inhibitory concentration)
Procedure: as §1

S. pneumoniae 205 = conditions: Streptococcus pneumoniae; bacteria symbol C = S. pneumoniae 205; read-out: MIC values (minimum inhibitory concentration)
Procedure: as §1

MIC (S. pneumoniae ATCC 49619) [µg/mL] | MIC (H. influenzae ATCC 43095) [µg/mL] | MIC (S. pneumoniae 205) [µg/mL] | SMILES
0.03 (≈ 0.0401 µM) | 4 (≈ 5.35 µM) | > 128 | CC[C@H]1OC(=O)[C@H](C)[C@@H](O[C@H]2C[C@@](C)(OC)[C@@H](O)[C@H](C)O2)[C@H](C)[C@@H](O[C@@H]2O[C@H](C)C[C@H](N(C)C)[C@H]2O)[C@](C)(OC)C[C@@H](C)C(=O)[C@H](C)[C@@H](O)[C@]1(C)O [Comparative agent 1, clarithromycin]
0.12 (≈ 0.167 µM) | 4 (≈ 5.56 µM) | 64 (≈ 89 µM) | CO[C@]1(C)C[C@H](O[C@H]2[C@H](C)[C@@H](O[C@@H]3O[C@H](C)C[C@H](N(C)C)[C@H]3O)[C@@](C)(OC)C[C@@H](C)[C@H](O)[C@H](C)N(C)C(C)C(C)OC(=O)[C@@H]2C)O[C@@H](C)[C@@H]1O (stereo partly drawn) [Example 261]
